The record followed here is patent US11242337B2, “Compounds useful for treating gastrointestinal tract disorders” (Ardelyx, Inc., priority 2017, dated 2022).

The experiment addresses T1, NHE3 (Homo sapiens, UniProt P48764).
T1 construct: expressed in transfected cells
T1 sequence (P48764 26-834): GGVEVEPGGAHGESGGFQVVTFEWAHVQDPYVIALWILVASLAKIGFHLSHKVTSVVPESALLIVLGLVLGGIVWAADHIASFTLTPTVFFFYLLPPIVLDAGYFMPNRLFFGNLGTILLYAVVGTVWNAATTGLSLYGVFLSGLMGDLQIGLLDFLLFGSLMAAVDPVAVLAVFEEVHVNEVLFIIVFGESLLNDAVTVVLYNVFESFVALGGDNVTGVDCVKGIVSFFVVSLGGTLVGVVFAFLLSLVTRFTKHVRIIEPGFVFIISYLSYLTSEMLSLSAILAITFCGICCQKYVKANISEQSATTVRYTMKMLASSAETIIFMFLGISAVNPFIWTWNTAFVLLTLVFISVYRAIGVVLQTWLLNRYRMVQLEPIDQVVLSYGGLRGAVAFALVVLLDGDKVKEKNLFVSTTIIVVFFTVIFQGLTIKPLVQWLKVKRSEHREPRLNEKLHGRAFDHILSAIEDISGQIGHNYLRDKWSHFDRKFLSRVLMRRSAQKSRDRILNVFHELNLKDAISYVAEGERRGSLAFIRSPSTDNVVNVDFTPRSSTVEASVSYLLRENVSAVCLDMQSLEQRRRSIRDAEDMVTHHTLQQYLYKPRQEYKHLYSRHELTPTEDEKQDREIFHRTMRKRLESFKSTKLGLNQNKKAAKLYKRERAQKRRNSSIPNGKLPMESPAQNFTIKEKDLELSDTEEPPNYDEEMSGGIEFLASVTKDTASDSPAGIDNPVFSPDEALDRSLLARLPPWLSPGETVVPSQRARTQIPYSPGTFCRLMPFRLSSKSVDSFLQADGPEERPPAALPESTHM
T1 sequence (Q99653 2-195 partner limits assumed): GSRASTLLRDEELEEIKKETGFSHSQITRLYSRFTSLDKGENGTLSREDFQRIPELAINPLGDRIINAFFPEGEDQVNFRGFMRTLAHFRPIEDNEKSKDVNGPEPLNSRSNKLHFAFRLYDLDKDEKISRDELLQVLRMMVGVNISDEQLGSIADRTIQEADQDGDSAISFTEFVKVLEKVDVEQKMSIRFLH
The experiment is described as follows: Cell-based assay of NHE-3 activity (persistent inhibition), human. Conditions: human Persistence, 60 min incubation then washout. In short, it runs like this: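 Persistent inhibition: compound (0-30 μM, 60 min, RT, NaCl-HEPES pH 7.4) removed before assay. Human NHE3/NHERF2 PS120 cells were then BCECF-loaded during NH4Cl pulse (30 min, 37 °C), acidified in Na+-free buffer, and Na+ added 10 min after washout; antiport measured as initial fluorescence-ratio change per minute.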

For the molecule `Cc1cc(S(=O)(=O)N[C@H]2CCN(CCOCCNC(=O)NCCCCNC(=O)NCCOCCN3CC[C@H](NS(=O)(=O)c4ccc(O[C@H]5c6cc(Cl)cc(Cl)c6C[C@@H]5N(C)C)c(C)c4)C3=O)C2=O)ccc1O[C@H]1c2cc(Cl)cc(Cl)c2C[C@@H]1N(C)C` [Example 91, 1-(2-[2-[(3S)-3-[(4-[[(1S,2S)-4,6-Dichloro-2-(dimethylamino)-2,3-dihydro-1H-inden-1-yl]oxy]-3-methylbenzene)sulfonamido]-2-oxopyrrolidin-1-yl]ethoxy]ethyl)-3-(4-[[(2-[2-[(3S)-3-[(4-[[(1S,2S)-4,6-dichloro-2-(dimethylamino)-2,3-dihydro-1H-inden-1-yl]oxy]-3-methylbenzene)sulfonamido]-2-oxopyrrolidin-1-yl]ethoxy]ethyl)carbamoyl]amino]butyl)urea], the “% inhibition” value is recorded as “C (>70%)” and the pIC50 result is listed as “C (NHE3 pIC50 > 7)”.
As a reminder, the IC50 is the concentration needed to halve the response being measured. Read a low IC50 as inhibition by little substance. For `O=C(NCCCCNC(=O)NCCOCCN1CC[C@@H](NS(=O)(=O)c2ccc(O[C@H]3c4cc(Cl)cc(Cl)c4C[C@@H]3N3CCNCC3)c(F)c2)C1)NCCOCCN1CC[C@@H](NS(=O)(=O)c2ccc(O[C@H]3c4cc(Cl)cc(Cl)c4C[C@@H]3N3CCNCC3)c(F)c2)C1` [Example 105, 4-([(1S,2S)-4,6-Dichloro-2-(piperazin-1-yl)-2,3-dihydro-1H-inden-1-yl]oxy)-N—[(R)-1-(20-[(R)-3-([4-([(1S2S)-4,6-dichloro-2-(piperazin-1-yl)-2,3-dihydro-1H-inden-1-yl]oxy)-3-fluorophenyl]sulfonamido)pyrrolidin-1-yl]-7,14-dioxo-3,18-dioxa-6,8,13,15-tetraazaicosyl)pyrrolidin-3-yl]-3-fluorobenzenesulfonamide; tetra(trifluoroacetate)], the “% inhibition” value was “C (>70%)” and the IC50 is below 100 nM.
In the case of `O=C(NCCCCNC(=O)NCCOCCN1CC[C@H](NS(=O)(=O)c2ccc(O[C@H]3c4cc(Cl)cc(Cl)c4C[C@@H]3N3CCNCC3)c(F)c2)C1)NCCOCCN1CC[C@H](NS(=O)(=O)c2ccc(O[C@H]3c4cc(Cl)cc(Cl)c4C[C@@H]3N3CCNCC3)c(F)c2)C1` [Example 106, 4-([(1S,2S)-4,6-Dichloro-2-(piperazin-1-yl)-2,3-dihydro-1H-inden-1-yl]oxy)-N—[(S)-1-(20-[(S)-3-([4-([(1S,2S)-4,6-dichloro-2-(piperazin-1-yl)-2,3-dihydro-1H-inden-1-yl]oxy)-3-fluorophenyl]sulfonamido)pyrrolidin-1-yl]-7,14-dioxo-3,18-dioxa-6,8,13,15-tetraazaicosyl)pyrrolidin-3-yl]-3-fluorobenzenesulfonamide; tetra(trifluoroacetate)], the “% inhibition” value is “C (>70%)”.
As to `N#Cc1cc(Cl)cc2c1C[C@H](N1CCNCC1)[C@H]2Oc1ccc(S(=O)(=O)N[C@H]2CCN(CCOCCNC(=O)NCCCCNC(=O)NCCOCCN3CC[C@H](NS(=O)(=O)c4ccc(O[C@H]5c6cc(Cl)cc(C#N)c6C[C@@H]5N5CCNCC5)cc4)C3)C2)cc1` [Example 107, 4-([(1S,2S)-6-Chloro-4-cyano-2-(piperazin-1-yl)-2,3-dihydro-1H-inden-1-yl]oxy)-N—[(S)-1-(20-[(S)-3-([4-([(1S,2S)-6-chloro-4-cyano-2-(piperazin-1-yl)-2,3-dihydro-1H-inden-1-yl]oxy)phenyl]sulfonamido)pyrrolidin-1-yl]-7,14-dioxo-3,18-dioxa-6,8,13,15-tetraazaicosyl)pyrrolidin-3-yl]benzenesulfonamide; tetra(trifluoroacetate)], the “% inhibition” value is recorded as “C (>70%)” and the pIC50 entry was “C (NHE3 pIC50 > 7)”.
The matching figures for `N#Cc1cc(Cl)cc2c1C[C@H](N1CCNCC1)[C@H]2Oc1ccc(S(=O)(=O)N[C@@H]2CCN(CCOCCNC(=O)NCCCCNC(=O)NCCOCCN3CC[C@@H](NS(=O)(=O)c4ccc(O[C@H]5c6cc(Cl)cc(C#N)c6C[C@@H]5N5CCNCC5)c(F)c4)C3)C2)cc1F` [Example 109, 4-([(1S,2S)-6-Chloro-4-cyano-2-(piperazin-1-yl)-2,3-dihydro-1H-inden-1-yl]oxy)-N—[(R)-1-(20-[(R)-3-[(4-([(1S,2S)-6-chloro-4-cyano-2-(piperazin-1-yl)-2,3-dihydro-1H-inden-1-yl]oxy)-3-fluorophenyl)sulfonamide)pyrrolidin-1-yl]-7,14-dioxo-3,18-dioxa-6,8,13,15-tetraazaicosyl)pyrrolidin-3-yl]-3-fluorobenzenesulfonamide; tetra(trifluoroacetate)]: “C (>70%)” and “C (NHE3 pIC50 > 7)”.
In the same order, the values of `N#Cc1cc(Cl)cc2c1C[C@H](N1CCNCC1)[C@H]2Oc1ccc(S(=O)(=O)N[C@H]2CCN(CCOCCNC(=O)NCCCCNC(=O)NCCOCCN3CC[C@H](NS(=O)(=O)c4ccc(O[C@H]5c6cc(Cl)cc(C#N)c6C[C@@H]5N5CCNCC5)c(F)c4)C3)C2)cc1F` [Example 110, 4-([(1S,2S)-6-Chloro-4-cyano-2-(piperazin-1-yl)-2,3-dihydro-1H-inden-1-yl]oxy)-N—[(S)-1-(20-[(S)-3-[(4-([(1S,2S)-6-chloro-4-cyano-2-(piperazin-1-yl)-2,3-dihydro-1H-inden-1-yl]oxy)-3-fluorophenyl)sulfonamide)pyrrolidin-1-yl]-7,14-dioxo-3,18-dioxa-6,8,13,15-tetraazaicosyl)pyrrolidin-3-yl]-3-fluorobenzenesulfonamide; tetra(trifluoroacetate)] are “C (>70%)” and “C (NHE3 pIC50 > 7)”.
The matching figures for `N#Cc1cc(Cl)cc2c1C[C@H](N1CCNCC1)[C@H]2Oc1ccc(S(=O)(=O)NC2CCN(C(=O)CCCNC(=O)NCCCCNC(=O)NCCCC(=O)N3CCC(NS(=O)(=O)c4ccc(O[C@H]5c6cc(Cl)cc(C#N)c6C[C@@H]5N5CCNCC5)cc4)CC3)CC2)cc1` [Example 115]: “C (>70%)” and “C (NHE3 pIC50 > 7)”.
Regarding `N#Cc1cc(Cl)cc2c1C[C@H](N1CCNCC1)[C@H]2Oc1ccc(S(=O)(=O)N2CCC(NC(=O)CCCNC(=O)NCCCCNC(=O)NCCCC(=O)NC3CCN(S(=O)(=O)c4ccc(O[C@H]5c6cc(Cl)cc(C#N)c6C[C@@H]5N5CCNCC5)cc4)CC3)CC2)cc1` [Example 120, N^1,N^18-Bis(1-([4-([(1S,2S)-6-chloro-4-cyano-2-(piperazin-1-yl)-2,3-dihydro-1H-inden-1-yl]oxy)phenyl]sulfonyl)piperidin-4-yl)-6,13-dioxo-5,7,12,14-tetraazaoctadecanediamide], the “% inhibition” value is “C (>70%)” and the pIC50 result is listed as “C (NHE3 pIC50 > 7)”.
`CN(C)[C@H]1CCCN([C@H]2Cc3c(C#N)cc(Cl)cc3[C@@H]2Oc2ccc(S(=O)(=O)NCCOCCOCCNC(=O)NCCCCNC(=O)NCCOCCOCCNS(=O)(=O)c3ccc(O[C@H]4c5cc(Cl)cc(C#N)c5C[C@@H]4N4CCC[C@H](N(C)C)C4)cc3)cc2)C1` [Example 122, 4-([(1S,2S)-6-Chloro-4-cyano-2-[(S)-3-(dimethylamino)piperidin-1-yl]-2,3-dihydro-1H-inden-1-yl]oxy)-N-[26-([4-([(1S,2S)-6-chloro-4-cyano-2-[(S)-3-(dimethylamino)piperidin-1-yl]-2,3-dihydro-1H-inden-1-yl]oxy)phenyl]sulfonamido)-10,17-dioxo-3,6,21,24-tetraoxa-9,11,16,18-tetraazahexacosyl]benzenesulfonamide]: the “% inhibition” value was “C (>70%)” and the pIC50 result is on record as “C (NHE3 pIC50 > 7)”.
`N#Cc1cc(Cl)cc2c1C[C@H](N1CCNCC1)[C@H]2Oc1ccc(S(=O)(=O)NC2CCN(CCOCCNC(=O)NCCCCNC(=O)NCCOCCN3CCC(NS(=O)(=O)c4ccc(O[C@H]5c6cc(Cl)cc(C#N)c6C[C@@H]5N5CCNCC5)cc4)CC3)CC2)cc1` [Example 123, 4-([(1S,2S)-6-Chloro-4-cyano-2-(piperazin-1-yl)-2,3-dihydro-1H-inden-1-yl]oxy)-N-[1-(20-[4-([4-([(1S,2S)-6-chloro-4-cyano-2-(piperazin-1-yl)-2,3-dihydro-1H-inden-1-yl]oxy)phenyl]sulfonamide]piperidin-1-yl)-7,14-dioxo-3,18-dioxa-6,8,13,15-tetraazaicosyl]piperidin-4-yl)benzenesulfonamide]: the “% inhibition” value was “C (>70%)” and the pIC50 entry is listed as “C (NHE3 pIC50 > 7)”.
